Laboratory results: US9987286B2, “Compositions and methods for the treatment of addiction, psychiatric disorders, and neurodegenerative disease” (Embera NeuroTherapeutics, Inc., priority 2010, dated 2018)

How the values were obtained:
[1] = test system: cocaine self-administration in rats; test: Cocaine self-administration in rats, metyrapol (Example 5); format: in vivo, Adult male Wistar rats; details: metyrapol 25, 50, 100, 150 mg/kg ip 30 minutes before session; cocaine 0.125, 0.25 and 0.5 mg/kg/infusion
Description: (§1) We conducted the following experiment to explore the possibility that metyrapol would decrease cocaine self-administration in an animal model. Adult male Wistar rats were trained to respond under a 2-hour multiple, alternating schedule of food reinforcement and cocaine self-administration (fixed-ratio 4) during alternating 15-minute periods. Prior to testing, the rats were exposed to multiple saline substitution and food extinction probes. On test days, rats were pretreated 30 minutes prior to the start of the behavioral session with metyrapol (25, 50, 100, and 150 mg/kg, ip.) or vehicle. Subjects were initially trained and tested with 0.25 mg/kg/infusion of cocaine and, subsequently, with 0.125 and 0.5 mg/kg/infusion.

[2] = test system: food-maintained responding in rats; test: Food-maintained responding in rats, metyrapol (Example 5); format: in vivo, Adult male Wistar rats; details: metyrapol 25, 50, 100, 150 mg/kg ip
Description: as §1

[3] = test system: cocaine self-administration in rats; test: Cocaine self-administration before and after adrenalectomy, alternating schedule of cocaine and food reinforcement (Example 1); format: in vivo, Male Wistar rats; details: rats after bilateral adrenalectomy
Description: Male Wistar rats were housed in an AALAC-approved animal care facility and maintained at 85-90% of their free-feeding body weights. These rats were on a reversed 12-hour light, 12-hour dark cycle from the beginning of the experimental procedures.
A chronic indwelling jugular catheter (0.012 in i.d.×0.025 in o.d., silicone tubing) was implanted in each rat under pentobarbital anesthesia (50 mg/kg ip) with methyl atropine nitrate pretreatment (10 mg/kg ip). The animals were injected with sterile penicillin G procaine suspension (75,000 units, im) immediately before surgery and allowed 5-7 days to recover.
Animals were anesthetized with pentobarbital (50 mg/kg ip) with methyl atropine nitrate pretreatment (10 mg/kg ip). The adrenal glands were located through an incision and removed. The animals were injected with sterile penicillin G procaine suspension (75,000 units, im) and allowed to recover from surgery for 7 days. After ADX, the rats received drinking water containing 0.9% saline and 1.0% sucrose. Animals in the SHAM group received the same surgery except that the adrenal glands were not removed. They continued to receive tap water to drink.
Sound-attenuating operant conditioning chambers (Med-Associates, Inc.) were equipped with two response levers and a stimulus light located directly above each lever. A food pellet dispenser was located between the levers. […]

ACTH = test: Plasma ACTH radioimmunoassay (Example 1); format: in vivo, Male Wistar rats; details: rats before adrenalectomy; any of the doses
Text: (§2) Blood was collected via the implanted catheters at the end of the behavioral test sessions for the measurement of plasma CORT and […] (ACTH). The samples were kept on ice until centrifuged in a refrigerated centrifuge and the plasma collected and frozen until assayed. Plasma CORT and ACTH (ng/ml) were subsequently determined by radioimmunoassay.

plasma CORT = test: Plasma CORT radioimmunoassay (Example 1); format: in vivo, Male Wistar rats; details: rats before adrenalectomy; any of the doses
Text: as §2

[4] = test system: cocaine self-administration in rats; test: Ongoing cocaine self-administration in rats (earlier experiments); format: in vivo, rat; details: pretreatment with the single drug
Text: We then reduced the dose by one-half until we found a dose of each drug that no longer affected cocaine self-administration or any other observable behaviors (i.e., an ineffective dose). When we then combined the ineffective doses of the two drugs, cocaine self-administration was reduced. […] Thus, we concluded that combining drugs that affect the HPA axis through different mechanisms can produce an additive effect on cocaine reward. Furthermore, by combining these drugs at concentrations that have no effect when the drugs are administered alone, we can minimize the potential toxic side effects (e.g., excessive decreases in plasma cortisol with metyrapone and the abuse liability of benzodiazepines) that may be associated with these compounds. Accordingly, the compositions of the present invention may include combinations of therapeutic agents, one or both of which are present at a dosage level lower than that which would be required to achieve an effect had the agent been administered alone; the dosages may be additive.

plasma corticosterone = test: Plasma corticosterone in rats (earlier experiments); format: in vivo, rat; details: pretreatment with metyrapone
smoking cessation = details: cited from earlier work
[5] = test system: nicotine self-administration in rats; test: Intravenous nicotine self-administration, fixed-ratio schedule (Example 3); format: in vivo, Wistar-derived male rats; details: FR1-TO-20 s; varenicline 1 mg/kg subcutaneously; reduced from 15.4±1.0
Description: Wistar-derived male rats (250-300 g) were purchased from Harlan Laboratories (Livermore, Calif.), housed in groups of two, and maintained in a temperature-controlled environment on a 12 h:12 h light cycle. Before testing, animals were provided free access to food and water during a one-week habituation period, and were handled daily for several days to desensitize them to handling stress. Each rat included in the data analysis received all treatments in order to obtain reliable estimates of drug effects and decrease the impact of inter-animal variability.
Varenicline-HCl (Ontario Chemicals), at 1 mg/kg (expressed as free base), was used as a positive control and administered subcutaneously. Nicotine hydrogen tartrate (Sigma Aldrich) was dissolved in isotonic saline at 0.3 mg/mL (expressed as free base), adjusted to pH 7.0, and diluted to deliver 0.03 mg/kg/infusion. All test compounds were administered 30 minutes prior to nicotine self-administration sessions in a volume of 1 mL/kg.
Food training and nicotine self-administration took place in 8 standard COULBOURN® operant conditioning chambers. Each chamber was housed in a sound-attenuating chamber. Operant chambers were equipped with two levers mounted 2 cm above the floor and a cue light mounted 2 cm above the right lever (active lever) on the back wall of the chamber. […]

CC(C)(c1cccnc1)C(O)c1cccnc1 (stereo not shown) [metyrapol]
cocaine self-administration [1]: dose dependently decreased | food-maintained responding [2]: not significantly affected except at the highest doses

CC(C)(C(=O)c1cccnc1)c1cccnc1 [metyrapone]
blocking cocaine self-administration following adrenalectomy compared to pre-adrenalectomy values [3]: as effective, and possibly even more effective | ACTH (plasma) (ACTH): not changed | Corticosterone (plasma) (plasma CORT): not changed | ongoing cocaine self-administration [4]: significant dose-related decreases | plasma corticosterone (plasma corticosterone): significant dose-related decreases

c1cnc2cc3c(cc2n1)[C@@H]1CNC[C@H]3C1 [varenicline]
efficacy for smoking cessation compared to either bupropion or nicotine replacement therapy (smoking cessation; literature reports): increased efficacy | quit rates after one year (smoking cessation; smoking cessation, Nides et al. 2006): 14% | nicotine infusions during the 1-hour self-administration session [5]: 7.7±1.2 infusions
